Measurements from patent publication US11407736B2 (priority 2019, dated 2022).
Where a name gives a salt, the structure may show the parent alone. Read-outs that look alike come from different tables or passages of the source.

What was measured:
RIPK1 = RIPK1 (Homo sapiens (Human), UniProt Q13546); test: RIPK1 ADP-Glo biochemical kinase assay; conditions: read-out: RIPK1 ADP-Glo Kinase (IC50)
Procedure: The final reaction volume was 5.0ul.
Adding 5 μl of ADP-Glo™ terminated the reaction.

U937 cells = test: U937 cell necroptosis assay (TNFa + zVAD, CellTiter-Glo); type: cell-based, human; conditions: TNFa + zVAD, read-out: U937 Zvad TNF CTG Recovery, U937, TNFa + zVAD (IC50)
Summary of the method: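 Necroptosis was induced with TNFa at 2 ng/mL final for 18 h at 37 °C, following 1 h compound pre-incubation in the presence of zVAD-fmk (60 uM for U937 plating medium, 40 uM for L929 medium). Luminescent CellTiter-Glo signal gave relative cell survival.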

L929 cells = test: L929 cell necroptosis assay (TNFa + zVAD, CellTiter-Glo); type: cell-based, murine; conditions: TNFa + zVAD, read-out: L929-CTG-recovery, L929, TNFa + zVAD (IC50)
Summary of the method: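 Necroptosis was read as CellTiter-Glo luminescence 18 hours after TNFa stimulation at 37° C, 5% CO2. Prior to that, L929 cells (10K/well, plated 18 h) received fresh medium with 40 uM zVAD-fmk plus 4-fold serially diluted compound.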

[1] = Homo sapiens, U-937, U937 cells

RIPK1, sequence (Q13546 whole entry, species assumed): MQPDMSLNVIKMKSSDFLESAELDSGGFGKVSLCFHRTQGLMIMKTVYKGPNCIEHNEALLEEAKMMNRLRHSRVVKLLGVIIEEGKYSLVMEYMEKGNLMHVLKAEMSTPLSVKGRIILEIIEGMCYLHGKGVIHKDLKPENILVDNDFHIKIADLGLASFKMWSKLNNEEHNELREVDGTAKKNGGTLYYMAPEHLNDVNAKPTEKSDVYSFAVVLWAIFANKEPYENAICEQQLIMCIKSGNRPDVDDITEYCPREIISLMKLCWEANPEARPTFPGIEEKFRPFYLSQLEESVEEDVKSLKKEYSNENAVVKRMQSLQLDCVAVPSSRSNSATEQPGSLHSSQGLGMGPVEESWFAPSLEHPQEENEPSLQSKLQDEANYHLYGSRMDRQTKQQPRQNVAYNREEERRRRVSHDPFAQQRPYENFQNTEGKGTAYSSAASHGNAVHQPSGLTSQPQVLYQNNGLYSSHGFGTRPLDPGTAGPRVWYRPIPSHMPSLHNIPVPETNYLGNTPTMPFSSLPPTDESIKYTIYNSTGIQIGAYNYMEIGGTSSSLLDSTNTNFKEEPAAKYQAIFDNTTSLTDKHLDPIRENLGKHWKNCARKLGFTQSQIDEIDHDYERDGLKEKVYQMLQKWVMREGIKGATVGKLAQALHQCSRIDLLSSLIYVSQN

| Compound | IC50 (RIPK1) [nM] | IC50 (U937 cells; [1]) [nM] | IC50 (L929 cells; Mus musculus, L929, L929 cells) [nM] | IC50 (L929 cells; Mus musculus, L929 cells) [nM] | IC50 (U937 cells; U937 cells) [nM] | IC50 (L929 cells; L929 cells) [nM] |
| --- | --- | --- | --- | --- | --- | --- |
| CCOC(=O)CCc1ccc2c(c1)N(C)C(=O)[C@@H](NC(=O)c1ncn(Cc3ccccc3F)n1)CO2 [Compound I-5, Ethyl (S)-3-(3-(1-(2-fluorobenzyl)-1H-1,2,4-triazole-3-carboxamido)-5-methyl-4-oxo-2,3,4,5-tetrahydrobenzo[b][1,4]oxazepin-7-yl)propanoate] | 19.7 | 0.5 | 18.8 |  |  |  |
| C[C@H](N)C(=O)OC1(C#Cc2ccc3c(c2)N(C)C(=O)[C@@H](NC(=O)c2cc(Oc4ccccc4)ccn2)CO3)COC1 [Compound I-194, 3-(((S)-5-methyl-4-oxo-3-(4-phenoxypicolinamido)-2,3,4,5-tetrahydrobenzo[b][1,4]oxazepin-7-yl)ethynyl)oxetan-3-yl L-alaninate trifluoroacetic acid salt] | 18.6 | 0.6 |  | 32.5 |  |  |
| CN1C(=O)[C@@H](NC(=O)n2ccc(Cc3ccc(F)cc3)n2)COc2ccc(C#CC3(O)CCC3)cc21 [Compound I-223, (S)-3-(4-Fluorobenzyl)-N-(7-((1-hydroxycyclobutyl)ethynyl)-5-methyl-4-oxo-2,3,4,5-tetrahydrobenzo[b][1,4]oxazepin-3-yl)-1H-pyrazole-1-carboxamide] | 141 | 627 | 10300 |  |  |  |
| CN1C(=O)[C@H](NC(=O)c2n[nH]c(Cc3ccccc3)n2)COc2ccc(C#CC(C)(C)O)cc21 [Compound I-70, (R)-5-benzyl-N-(7-(3-hydroxy-3-methylbut-1-yn-1-yl)-5-methyl-4-oxo-2,3,4,5-tetrahydrobenzo[b][1,4]oxazepin-3-yl)-1H-1,2,4-triazole-3-carboxamide] | 1160 | 188 | 19.5 |  |  |  |
| CN1C(=O)[C@@H](NC(=O)n2cc(Cc3ccccc3)cn2)COc2ccc(C#CC3(O)CCC3)cc21 [Compound I-219, (S)-4-Benzyl-N-(7-((1-hydroxycyclobutyl)ethynyl)-5-methyl-4-oxo-2,3,4,5-tetrahydrobenzo[b][1,4]oxazepin-3-yl)-1H-pyrazole-1-carboxamide] | 28.4 | 0.6 | 23.6 |  |  |  |
| CN1C(=O)[C@@H](NC(=O)c2ncn(Cc3ccccc3)n2)COc2ccc(CN3CCn4c(nnc4C(F)(F)F)C3)cc21 [Compound I-46, (S)-1-benzyl-N-(5-methyl-4-oxo-7-((3-(trifluoromethyl)-5,6-dihydro-[1,2,4]triazolo[4,3-a]pyrazin-7(8H)-yl)methyl)-2,3,4,5-tetrahydrobenzo[b][1,4]oxazepin-3-yl)-1H-1,2,4-triazole-3-carboxamide] | 43.7 | 1.2 | 0.4 |  |  |  |
| C#Cc1ccc2c(c1)N(C)C(=O)[C@@H](NC(=O)c1n[nH]c(Cc3ccccc3)n1)CO2 [Compound I-81, (S)-5-benzyl-N-(7-ethynyl-5-methyl-4-oxo-2,3,4,5-tetrahydrobenzo[b][1,4]oxazepin-3-yl)-1H-1,2,4-triazole-3-carboxamide] | 19 | 4.2 | 1.2 |  |  |  |
| CN1C(=O)[C@@H](NC(=O)c2n[nH]c(Cc3ccccc3)n2)COc2ccc(CN3CCn4ncnc4C3)cc21 [Compound I-24, (S)-5-benzyl-N-(7-((5,6-dihydro-[1,2,4]triazolo[1,5-a]pyrazin-7(8H)-yl)methyl)-5-methyl-4-oxo-2,3,4,5-tetrahydrobenzo[b][1,4]oxazepin-3-yl)-1H-1,2,4-triazole-3-carboxamide] | 59.2 | 3.6 | 4610 |  |  |  |
| CN1C(=O)[C@@H](NC(=O)c2cc(Oc3cccc(F)c3)ccn2)COc2ccc(C#CC(C)(C)O)cc21 [Compound I-107, (S)-4-(3-fluorophenoxy)-N-(7-(3-hydroxy-3-methylbut-1-yn-1-yl)-5-methyl-4-oxo-2,3,4,5-tetrahydrobenzo[b][1,4]oxazepin-3-yl)picolinamide] | 23.1 | 1.3 | 161 |  |  |  |
| CN1C(=O)[C@@H](NC(=O)n2cc(Cc3ccc(F)cc3)cn2)COc2ccc(C#CC3(O)CCC3)cc21 [Compound I-221, (S)-4-(4-Fluorobenzyl)-N-(7-((l-hydroxycyclobutyl)ethynyl)-5-methyl-4-oxo-2,3,4,5-tetrahydrobenzo[b][1,4]oxazepin-3-yl)-1H-pyrazole-1-carboxamide] | 39.7 | 2.5 | 72.2 |  |  |  |
| CN1C(=O)[C@@H](NC(=O)c2cc(Oc3cccc(F)c3)ccn2)COc2ccc(C#CC(C)(C)C)cc21 [Compound I-106, (S)—N-(7-(3,3-dimethylbut-1-yn-1-yl)-5-methyl-4-oxo-2,3,4,5-tetrahydrobenzo[b][1,4]oxazepin-3-yl)-4-(3-fluorophenoxy)picolinamide] | 582 | 5.5 | 481 |  |  |  |
| CN1C(=O)[C@@H](NC(=O)c2n[nH]c(Cc3ccccc3)n2)COc2ccc(C#CCN3CCCC3)cc21 [Compound I-95, (S)-5-benzyl-N-(5-methyl-4-oxo-7-(3-(pyrrolidin-1-yl)prop-1-yn-1-yl)-2,3,4,5-tetrahydrobenzo[b][1,4]oxazepin-3-yl)-1H-1,2,4-triazole-3-carboxamide] | 27.1 | 1.4 | 0.5 |  |  |  |
| CC(C)[C@H](N)C(=O)OC1(C#Cc2ccc3c(c2)N(C)C(=O)[C@@H](NC(=O)c2cc(Oc4ccccc4)ccn2)CO3)COC1 [Compound I-164, 3-4(S)-5-methyl-4-oxo-3-(4-phenoxypicolinamido)-2,3,4,5-tetrahydrobenzo[b][1,4]oxazepin-7-yl)ethynyl)oxetan-3-yl L-valinate benzenesulfonic acid salt] | 71.7 |  |  |  | 0.7 | 31.9 |
| CN1C(=O)[C@@H](NC(=O)c2n[nH]c(Cc3ccccc3)n2)COc2ccc(CCCCOCc3ccccn3)cc21 [Compound I-16, (S)-5-benzyl-N-(5-methyl-4-oxo-7-(4-(pyridin-2-ylmethoxy)butyl)-2,3,4,5-tetrahydrobenzo[b][1,4]oxazepin-3-yl)-1H-1,2,4-triazole-3-carboxamide] | 1630 | 51.7 | 5670 |  |  |  |
| CN1C(=O)[C@@H](NC(=O)c2n[nH]c(Cc3ccccc3)n2)COc2ccc(CCC(=O)N3CCOCC3)cc21 [Compound I-11, (S)-5-benzyl-N-(5-methyl-7-(3-morpholino-3-oxopropyl)-4-oxo-2,3,4,5-tetrahydrobenzo[b][1,4]oxazepin-3-yl)-1H-1,2,4-triazole-3-carboxamide] | 57.1 | 8.1 | 14100 |  |  |  |
| CCN1C(=O)[C@@H](NC(=O)c2n[nH]c(Cc3cccc(F)c3)n2)COc2ccc(C#CC(C)(C)O)cc21 [Compound I-92, (S)—N-(5-ethyl-7-(3-hydroxy-3-methylbut-1-yn-1-yl)-4-oxo-2,3,4,5-tetrahydrobenzo[b][1,4]oxazepin-3-yl)-5-(3-fluorobenzyl)-1H-1,2,4-triazole-3-carboxamide] | 932 | 4840 | 430 |  |  |  |
| CN1C(=O)[C@@H](NC(=O)c2cc(Oc3ccccc3)ccn2)COc2ccc(C#CC3(O)CCNCC3)cc21 [Compound I-132, (S)—N-(7-((4-hydroxypiperidin-4-yl)ethynyl)-5-methyl-4-oxo-2,3,4,5-tetrahydrobenzo[b][1,4]oxazepin-3-yl)-4-phenoxypicolinamide] | 30.5 | 35.9 | 4600 |  |  |  |
| C[C@H](N)C(=O)OCC(C)(C)C#Cc1ccc2c(c1)N(C)C(=O)[C@@H](NC(=O)c1cc(Oc3ccccc3)ccn1)CO2 [Compound I-142, 2,2-dimethyl-4-((S)-5-methyl-4-oxo-3-(4-phenoxypicolinamido)-2,3,4,5-tetrahydrobenzo[b][1,4]oxazepin-7-yl)but-3-yn-1-yl L-alaninate] | 24.2 | 1.4 | 77.3 |  |  |  |
| CN1C(=O)[C@@H](NC(=O)c2n[nH]c(Cc3ccccc3)n2)COc2ccc(CN3CCn4c(nnc4C(F)(F)F)C3)cc21 [Compound I-47, (S)-5-benzyl-N-(5-methyl-4-oxo-7-((3-(trifluoromethyl)-5,6-dihydro-[1,2,4]triazolo[4,3-a]pyrazin-7(8H)-yl)methyl)-2,3,4,5-tetrahydrobenzo[b][1,4]oxazepin-3-yl)-1H-1,2,4-triazole-3-carboxamide] | 68.3 | 4.6 | 1.5 |  |  |  |
| CN1C(=O)[C@@H](NC(=O)c2ncn(Cc3c(Cl)cccc3Cl)n2)COc2ccc(CCC(=O)NC3CC3)cc21 [Compound I-19, (S)—N-(7-(3-(cyclopropylamino)-3-oxopropyl)-5-methyl-4-oxo-2,3,4,5-tetrahydrobenzo[b][1,4]oxazepin-3-yl)-1-(2,6-dichlorobenzyl)-1H-1,2,4-triazole-3-carboxamide] | 146 | 2.7 | 1300 |  |  |  |
| CN1C(=O)[C@@H](NC(=O)c2n[nH]c(Cc3ccccc3)n2)COc2ccc(C#Cc3ccc4c(c3)CNCC4)cc21 [Compound I-88, (S)-5-benzyl-N-(5-methyl-4-oxo-7-((1,2,3,4-tetrahydroisoquinolin-7-yl)ethynyl)-2,3,4,5-tetrahydrobenzo[b][1,4]oxazepin-3-yl)-1H-1,2,4-triazole-3-carboxamide] | 73.8 | 0.7 | 0.0976 |  |  |  |
